Experimental data taken from PMC3827683 (Journal of the American Chemical Society, 2013).
Values belong to the compound of their own block, whether it stands above or below them.

What was measured:
Assay in all cases: direct UV assay of deamination
Assay type in all cases: biochemical
Conditions in all cases: 20 mM HEPES pH 7.5, 30 °C
[1] = molecular target: T1, Avi5431 (Gillisella ampelina, UniProt B9K107)
T1 sequence (B9K107 1-466): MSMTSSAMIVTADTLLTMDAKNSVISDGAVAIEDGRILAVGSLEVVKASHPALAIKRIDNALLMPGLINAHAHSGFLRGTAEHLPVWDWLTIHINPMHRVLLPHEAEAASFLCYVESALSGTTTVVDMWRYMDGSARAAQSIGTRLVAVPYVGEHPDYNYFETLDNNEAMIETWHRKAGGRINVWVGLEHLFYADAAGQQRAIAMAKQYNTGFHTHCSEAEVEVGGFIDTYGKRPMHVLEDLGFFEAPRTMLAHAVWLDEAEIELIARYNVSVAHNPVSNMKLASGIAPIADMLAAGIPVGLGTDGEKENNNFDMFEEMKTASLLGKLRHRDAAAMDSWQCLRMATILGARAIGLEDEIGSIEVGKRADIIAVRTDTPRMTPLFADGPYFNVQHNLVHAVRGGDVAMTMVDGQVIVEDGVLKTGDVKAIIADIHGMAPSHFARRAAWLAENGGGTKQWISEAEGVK

[2] = molecular target: T1, Avi5431; remark: listed apart in the source
[3] = molecular target: T2, Tvn0515 (Thermoplasma volcanium, UniProt Q97BE1)
T2 sequence (Q97BE1 1-418): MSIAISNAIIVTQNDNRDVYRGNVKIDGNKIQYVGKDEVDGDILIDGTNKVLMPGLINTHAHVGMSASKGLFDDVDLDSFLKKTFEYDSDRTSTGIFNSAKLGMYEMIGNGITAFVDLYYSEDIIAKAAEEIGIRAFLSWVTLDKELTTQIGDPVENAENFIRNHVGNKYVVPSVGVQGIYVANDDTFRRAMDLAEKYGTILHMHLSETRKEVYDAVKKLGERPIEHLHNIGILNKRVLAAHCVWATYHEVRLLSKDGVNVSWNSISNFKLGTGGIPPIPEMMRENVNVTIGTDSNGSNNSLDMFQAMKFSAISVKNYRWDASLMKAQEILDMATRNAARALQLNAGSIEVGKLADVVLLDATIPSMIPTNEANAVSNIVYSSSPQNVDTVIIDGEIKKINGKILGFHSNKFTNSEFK

SMILES: Nc1nc(O)nc2[nH]cnc12 [2-oxoadenine]
direct UV assay of deamination (294 nm) [1]: Avi5431 deaminated two adenine related compounds, 8-oxoadenine and 2-oxoadenine

SMILES: Nc1ncnc2[nH]c(=O)[nH]c12 [8-oxoadenine]
direct UV assay of deamination (272 nm) [2]: Avi5431 deaminated two adenine related compounds, 8-oxoadenine and 2-oxoadenine

Km [3]: Tvn0515 (sg-11) deaminates only SAH
SMILES: Nc1ncnc2c1ncn2[C@@H]1O[C@H](CSCC[C@H](N)C(=O)O)[C@@H](O)[C@H]1O [SAH]
